The values that follow are results of earlier work, collected in PMC5857253 (Bioorganic chemistry, 2018).

This series concerns the target β-galactosidase (A. oryzae) (Aspergillus oryzae, UniProt Q2UCU3). Particulars: methods described by Bartlett et al.

Chain of β-galactosidase (A. oryzae) (Q2UCU3 19-1005): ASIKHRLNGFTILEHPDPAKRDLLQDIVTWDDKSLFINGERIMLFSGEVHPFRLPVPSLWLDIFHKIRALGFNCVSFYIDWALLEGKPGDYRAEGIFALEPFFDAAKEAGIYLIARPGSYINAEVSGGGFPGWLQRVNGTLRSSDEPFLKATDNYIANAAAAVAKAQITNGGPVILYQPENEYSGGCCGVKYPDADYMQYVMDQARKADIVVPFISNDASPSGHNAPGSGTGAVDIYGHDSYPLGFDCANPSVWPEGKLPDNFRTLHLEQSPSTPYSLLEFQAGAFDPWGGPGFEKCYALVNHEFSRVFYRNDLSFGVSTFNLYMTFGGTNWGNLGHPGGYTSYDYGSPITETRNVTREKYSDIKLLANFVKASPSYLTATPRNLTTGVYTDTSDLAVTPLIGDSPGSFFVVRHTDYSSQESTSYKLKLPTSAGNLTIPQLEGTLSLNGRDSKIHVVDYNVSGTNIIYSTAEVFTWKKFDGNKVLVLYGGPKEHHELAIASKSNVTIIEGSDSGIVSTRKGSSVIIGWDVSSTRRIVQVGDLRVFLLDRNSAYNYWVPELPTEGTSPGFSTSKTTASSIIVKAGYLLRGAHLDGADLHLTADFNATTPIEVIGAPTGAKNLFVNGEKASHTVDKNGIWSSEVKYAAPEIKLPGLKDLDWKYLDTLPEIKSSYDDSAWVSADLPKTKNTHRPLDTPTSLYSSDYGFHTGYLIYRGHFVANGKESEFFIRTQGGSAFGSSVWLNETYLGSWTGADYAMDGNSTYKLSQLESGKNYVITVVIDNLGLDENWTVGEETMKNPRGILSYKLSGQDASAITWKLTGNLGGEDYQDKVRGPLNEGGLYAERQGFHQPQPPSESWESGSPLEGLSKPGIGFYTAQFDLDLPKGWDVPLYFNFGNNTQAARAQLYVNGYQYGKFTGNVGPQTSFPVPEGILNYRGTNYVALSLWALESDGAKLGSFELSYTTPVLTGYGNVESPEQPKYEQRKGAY

As to `Cc1ccc(C/N=C2\N[C@H](CO)[C@H](O)[C@H](O)[C@H]2O)cc1` [1a, p-methylbenzyl galactonoamidine], the “classification as putative transition state analog (TSA)” value is on record as “characterized as a putative transition state analog”.
